Data taken from patent US20050064011A1, “Implantable or insertable medical devices containing phenolic compound for inhibition of restenosis” (priority 2003, published 2005).

Tested on: coronary arteries of juvenile domestic swine
Test: Stent implantation in porcine coronary artery model, morphometric analysis after 28 days
Type: in vivo
Settings: BHT in copolymer stent coating
From the text: The following are placed in the coronary arteries of juvenile domestic swine: (a) oversized bare metal stents, (b) EtO-sterilized, copolymer-coated, BHT-free stents, (c) electron-beam-sterilized, copolymer-coated, BHT-free stents, (d) electron-beam-sterilized, stents with coating containing 5% BHT and 95% copolymer, and (e) electron beam-sterilized, stents with coating containing 10% BHT and 90% copolymer. After 28 days, the stents are harvested from the animals and an examination of morphometric % restenosis and neointimal thickening area was conducted. Morphometric analysis is performed on one specimen from each stented segment in a blinded manner. Morphometry is completed using a PC based digital planimetry system. Morphometric % restenosis is determined by neointimal area÷internal elastic lamina (IEL) area×100; while neointimal area is determined by internal elastic lamina (IEL)−injured luminal area. The results are presented in the table to follow: Statistical methods are as follows: Data are presented as mean±S.D. Comparisons between the control (bare stent) and treated stents were made using unpaired t-test. Improvement in morphometic % restenosis and neointimal area, relative to bare stents, was […] considered to be statistically significant for values of p≦0.05.

## Cc1cc(C(C)(C)C)c(O)c(C(C)(C)C)c1 [BHT, butylated hydroxytoluene]
  stent biocompatibility: enhances stent biocompatibility
